Source: BindingDB's records for doi:10.1016/j.bmcl.2004.09.053 (Avenida De La Industria, 2004)

Experiments:
Experiment in all cases: CDK Kinase Inhibition Assay
[1] = biological target: Cyclin-dependent kinase 2/G1/S-specific cyclin-E1 (Homo sapiens, UniProt P24941)
Procedure: (§1) In vitro CDK assay using purified enzyme, was incubated at room temperature with substrate, and test compounds in the presence of ATP/[gamma-33P]ATP. 33P incorporation was measured with a Top Count (Packard). IC50 is the inhibitor concentration which inhibits 50% of kinase activity that catalyzes the transfer of the terminal phosphate from 33P labeled ATP to the substrate.

[2] = biological target: Cyclin-dependent kinase/G2/mitotic-specific cyclin- 1 (Homo sapiens, UniProt P06493); details: 25 °C
Procedure: as §1

[3] = biological target: Cyclin-dependent kinase 4/G1/S-specific cyclin-D1 (Homo sapiens, UniProt P11802); details: 25 °C
Procedure: as §1

Cyclin-dependent kinase 4/G1/S-specific cyclin-D1, sequence (P11802 whole entry): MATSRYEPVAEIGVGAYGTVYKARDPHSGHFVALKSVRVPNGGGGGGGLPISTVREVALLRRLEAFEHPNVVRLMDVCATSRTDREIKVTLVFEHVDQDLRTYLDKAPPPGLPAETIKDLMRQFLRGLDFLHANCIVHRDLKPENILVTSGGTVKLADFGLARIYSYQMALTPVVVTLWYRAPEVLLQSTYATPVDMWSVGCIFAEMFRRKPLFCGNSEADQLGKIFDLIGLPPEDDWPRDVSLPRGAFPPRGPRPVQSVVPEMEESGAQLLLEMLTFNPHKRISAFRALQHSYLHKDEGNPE
Cyclin-dependent kinase 4/G1/S-specific cyclin-D1, sequence (P24385 whole entry, further chain): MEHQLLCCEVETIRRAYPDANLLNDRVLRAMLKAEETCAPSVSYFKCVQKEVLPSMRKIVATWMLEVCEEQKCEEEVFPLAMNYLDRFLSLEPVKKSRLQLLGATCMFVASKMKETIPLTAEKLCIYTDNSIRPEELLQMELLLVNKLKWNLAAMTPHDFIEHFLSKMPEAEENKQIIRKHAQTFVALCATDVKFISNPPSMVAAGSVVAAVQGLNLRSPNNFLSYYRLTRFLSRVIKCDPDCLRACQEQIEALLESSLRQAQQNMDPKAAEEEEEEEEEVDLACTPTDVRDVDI
Cyclin-dependent kinase/G2/mitotic-specific cyclin- 1, sequence (P06493 whole entry): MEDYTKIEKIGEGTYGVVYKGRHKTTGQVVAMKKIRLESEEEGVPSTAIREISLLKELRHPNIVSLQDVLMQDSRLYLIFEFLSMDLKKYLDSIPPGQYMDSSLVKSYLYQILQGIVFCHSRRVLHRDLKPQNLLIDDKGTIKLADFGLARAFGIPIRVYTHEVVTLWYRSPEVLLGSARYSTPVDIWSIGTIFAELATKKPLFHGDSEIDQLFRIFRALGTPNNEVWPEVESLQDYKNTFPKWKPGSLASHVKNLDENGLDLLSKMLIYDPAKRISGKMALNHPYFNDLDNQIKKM
Cyclin-dependent kinase/G2/mitotic-specific cyclin- 1, sequence (P14635 whole entry, further chain): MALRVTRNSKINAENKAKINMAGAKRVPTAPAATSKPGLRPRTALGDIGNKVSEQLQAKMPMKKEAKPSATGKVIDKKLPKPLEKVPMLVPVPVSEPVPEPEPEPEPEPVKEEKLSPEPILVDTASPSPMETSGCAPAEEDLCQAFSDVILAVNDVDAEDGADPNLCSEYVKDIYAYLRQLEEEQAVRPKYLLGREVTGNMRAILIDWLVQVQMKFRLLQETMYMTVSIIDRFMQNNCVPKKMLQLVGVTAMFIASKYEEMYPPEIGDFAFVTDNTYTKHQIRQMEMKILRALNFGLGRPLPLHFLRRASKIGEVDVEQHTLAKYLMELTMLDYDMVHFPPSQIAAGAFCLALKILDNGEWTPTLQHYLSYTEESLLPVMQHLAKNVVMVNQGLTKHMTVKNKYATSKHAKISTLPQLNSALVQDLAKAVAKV

| SMILES | IC50 ([1]; 25 °C) | IC50 [2] | IC50 [3] | IC50 ([1]; pH 7, 22 °C) |
| --- | --- | --- | --- | --- |
| CCN(CC)CCOc1cc(F)c(C(=O)c2c(N)nc3ccc(C(=O)c4c(Cl)cccc4Cl)cn23)c(F)c1 [6-[(2,6-dichlorophenyl)carbonyl]-3-({4-[2-(diethylamino)ethoxy]-2,6-difluorophenyl}carbonyl)imidazo[1,2-a]pyridin-2-amine] | 984 nM | – | – | – |
| N#C/C=C(\c1ccc2nc(N)c(C(=O)c3c(F)cccc3F)n2c1)c1c(F)cccc1F [(2E)-3-{2-amino-3-[(2,6-difluorophenyl)carbonyl]imidazo[1,2-a]pyridin-6-yl}-3-(2,6-difluorophenyl)prop-2-enenitrile] | – | 53 nM | 1550 nM | 160 nM |
| N#C/C=C(/c1ccc2nc(N)c(C(=O)c3c(F)cccc3F)n2c1)c1c(F)cccc1F [(2Z)-3-{2-amino-3-[(2,6-difluorophenyl)carbonyl]imidazo[1,2-a]pyridin-6-yl}-3-(2,6-difluorophenyl)prop-2-enenitrile] | 896 nM | – | – | – |
